Reference: patent US8513283B2, “Spiro substituted compounds as angiogenesis inhibitors” (Advenchen Laboratories, LLC, priority 2007, dated 2013)
pIC50: −log10 of the molar value.

How the values were obtained:
[1] = target: cKit(h) (Homo sapiens, UniProt P10721); assay: in vitro tyrosine kinase inhibition; type: biochemical
Source text: (§1) Several in vitro tyrosine kinase inhibition activities can be measured according to the description in Rewcastle, G W, J. Med. Chem. 1996, 39, 918-928 and Edwards M, International Biotechnology Lab 5 (3), 19-25, 1987. Oncogene, 1990, 5: 519-524. The Baculovirus Expression System: A Laboratory Guide, L. A. King 1992. Sambrook et al, 1989, Molecular cloning—A Laboratory Manual, 2nd edition, Cold Spring Harbour Laboratory Press. O'Reilly et al, 1992, Baculovirus Expression Vectors—A Laboratory Manual, W. H. Freeman and Co, New York.
(§2) Receptor tyrosine kinase can be obtained in partially purified form from A-431 cells similar to those described by Carpenter et al., J. Biol. Chem., 1979, 254, 4884, Cohen et al., J. Biol. Chem., 1982, 257, 1523 and by Braun et al., J. Biol. Chem., 1984, 259, 2051. Some of these tests can also be contracted with Millipore Upstate Ltd for screening.

[2] = target: Flt4(h) (Homo sapiens, UniProt P35916); assay: in vitro tyrosine kinase inhibition; type: biochemical
Flt4(h), sequence (P35916 25-1363): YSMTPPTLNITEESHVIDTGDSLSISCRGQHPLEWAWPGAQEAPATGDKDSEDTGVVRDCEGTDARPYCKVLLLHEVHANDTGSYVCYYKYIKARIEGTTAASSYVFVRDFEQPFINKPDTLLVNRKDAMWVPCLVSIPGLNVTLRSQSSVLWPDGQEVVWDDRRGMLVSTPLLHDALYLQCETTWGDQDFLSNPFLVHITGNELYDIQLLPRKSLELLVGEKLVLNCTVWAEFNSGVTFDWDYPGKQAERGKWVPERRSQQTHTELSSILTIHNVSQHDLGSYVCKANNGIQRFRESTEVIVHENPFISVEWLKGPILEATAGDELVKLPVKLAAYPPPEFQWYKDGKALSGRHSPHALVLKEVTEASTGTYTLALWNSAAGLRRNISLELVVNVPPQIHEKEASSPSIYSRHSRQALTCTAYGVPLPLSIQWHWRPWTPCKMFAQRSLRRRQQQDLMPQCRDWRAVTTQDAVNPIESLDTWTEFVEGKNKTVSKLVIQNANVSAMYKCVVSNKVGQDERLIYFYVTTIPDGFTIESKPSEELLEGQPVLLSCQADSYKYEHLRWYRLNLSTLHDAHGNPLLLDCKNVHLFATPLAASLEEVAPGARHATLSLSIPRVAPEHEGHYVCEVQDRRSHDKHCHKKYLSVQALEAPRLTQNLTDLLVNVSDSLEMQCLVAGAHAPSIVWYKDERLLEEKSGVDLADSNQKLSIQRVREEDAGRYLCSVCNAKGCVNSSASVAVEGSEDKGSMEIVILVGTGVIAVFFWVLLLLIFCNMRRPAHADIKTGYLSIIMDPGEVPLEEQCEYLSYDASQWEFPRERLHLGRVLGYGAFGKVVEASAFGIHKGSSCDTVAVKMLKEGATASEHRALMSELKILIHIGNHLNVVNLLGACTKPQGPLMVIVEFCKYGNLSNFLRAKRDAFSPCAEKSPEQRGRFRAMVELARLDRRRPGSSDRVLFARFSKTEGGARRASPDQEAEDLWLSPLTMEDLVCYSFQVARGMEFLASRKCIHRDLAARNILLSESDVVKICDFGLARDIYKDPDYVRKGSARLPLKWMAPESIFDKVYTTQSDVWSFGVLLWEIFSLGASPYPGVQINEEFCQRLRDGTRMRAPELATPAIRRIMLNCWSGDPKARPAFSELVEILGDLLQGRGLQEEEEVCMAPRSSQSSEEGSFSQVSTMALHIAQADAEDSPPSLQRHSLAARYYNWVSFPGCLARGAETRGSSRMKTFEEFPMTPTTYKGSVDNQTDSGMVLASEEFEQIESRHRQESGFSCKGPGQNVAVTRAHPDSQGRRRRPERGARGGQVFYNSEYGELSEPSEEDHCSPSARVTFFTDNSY
Source text: as §1, §2

[3] = target: PDGFRα(h) (Homo sapiens, UniProt P16234); assay: in vitro tyrosine kinase inhibition; type: biochemical
PDGFRα(h), sequence (P16234 24-1089): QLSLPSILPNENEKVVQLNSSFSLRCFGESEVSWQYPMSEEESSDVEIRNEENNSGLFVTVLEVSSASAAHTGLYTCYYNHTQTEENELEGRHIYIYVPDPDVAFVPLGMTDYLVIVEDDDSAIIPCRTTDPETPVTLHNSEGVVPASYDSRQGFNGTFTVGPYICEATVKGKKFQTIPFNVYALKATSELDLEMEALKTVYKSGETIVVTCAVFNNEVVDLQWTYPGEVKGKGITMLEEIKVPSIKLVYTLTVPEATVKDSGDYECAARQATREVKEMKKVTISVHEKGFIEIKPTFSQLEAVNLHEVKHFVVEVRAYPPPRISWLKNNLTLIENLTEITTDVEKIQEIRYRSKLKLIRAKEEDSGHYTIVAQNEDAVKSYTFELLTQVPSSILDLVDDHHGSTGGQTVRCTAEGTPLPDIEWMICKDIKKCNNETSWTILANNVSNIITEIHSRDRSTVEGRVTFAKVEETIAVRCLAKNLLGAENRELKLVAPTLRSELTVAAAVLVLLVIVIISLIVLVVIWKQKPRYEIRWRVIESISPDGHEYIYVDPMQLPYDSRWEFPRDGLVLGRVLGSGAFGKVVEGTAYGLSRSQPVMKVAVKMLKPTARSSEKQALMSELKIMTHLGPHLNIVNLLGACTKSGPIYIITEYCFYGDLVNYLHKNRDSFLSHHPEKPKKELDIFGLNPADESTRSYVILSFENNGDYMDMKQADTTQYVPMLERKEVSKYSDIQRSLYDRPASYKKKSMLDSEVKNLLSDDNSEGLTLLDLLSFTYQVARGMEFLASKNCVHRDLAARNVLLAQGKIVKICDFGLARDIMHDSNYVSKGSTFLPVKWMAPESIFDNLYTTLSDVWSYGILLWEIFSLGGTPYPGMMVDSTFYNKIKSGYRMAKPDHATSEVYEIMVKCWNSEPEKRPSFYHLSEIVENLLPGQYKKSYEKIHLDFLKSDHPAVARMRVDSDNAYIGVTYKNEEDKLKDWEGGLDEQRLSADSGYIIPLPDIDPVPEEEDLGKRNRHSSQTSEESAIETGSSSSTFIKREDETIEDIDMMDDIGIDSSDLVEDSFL
Source text: as §1, §2

[4] = target: Flt1(h) (Homo sapiens, UniProt P17948); assay: in vitro tyrosine kinase inhibition; type: biochemical
Flt1(h), sequence (P17948 27-1338): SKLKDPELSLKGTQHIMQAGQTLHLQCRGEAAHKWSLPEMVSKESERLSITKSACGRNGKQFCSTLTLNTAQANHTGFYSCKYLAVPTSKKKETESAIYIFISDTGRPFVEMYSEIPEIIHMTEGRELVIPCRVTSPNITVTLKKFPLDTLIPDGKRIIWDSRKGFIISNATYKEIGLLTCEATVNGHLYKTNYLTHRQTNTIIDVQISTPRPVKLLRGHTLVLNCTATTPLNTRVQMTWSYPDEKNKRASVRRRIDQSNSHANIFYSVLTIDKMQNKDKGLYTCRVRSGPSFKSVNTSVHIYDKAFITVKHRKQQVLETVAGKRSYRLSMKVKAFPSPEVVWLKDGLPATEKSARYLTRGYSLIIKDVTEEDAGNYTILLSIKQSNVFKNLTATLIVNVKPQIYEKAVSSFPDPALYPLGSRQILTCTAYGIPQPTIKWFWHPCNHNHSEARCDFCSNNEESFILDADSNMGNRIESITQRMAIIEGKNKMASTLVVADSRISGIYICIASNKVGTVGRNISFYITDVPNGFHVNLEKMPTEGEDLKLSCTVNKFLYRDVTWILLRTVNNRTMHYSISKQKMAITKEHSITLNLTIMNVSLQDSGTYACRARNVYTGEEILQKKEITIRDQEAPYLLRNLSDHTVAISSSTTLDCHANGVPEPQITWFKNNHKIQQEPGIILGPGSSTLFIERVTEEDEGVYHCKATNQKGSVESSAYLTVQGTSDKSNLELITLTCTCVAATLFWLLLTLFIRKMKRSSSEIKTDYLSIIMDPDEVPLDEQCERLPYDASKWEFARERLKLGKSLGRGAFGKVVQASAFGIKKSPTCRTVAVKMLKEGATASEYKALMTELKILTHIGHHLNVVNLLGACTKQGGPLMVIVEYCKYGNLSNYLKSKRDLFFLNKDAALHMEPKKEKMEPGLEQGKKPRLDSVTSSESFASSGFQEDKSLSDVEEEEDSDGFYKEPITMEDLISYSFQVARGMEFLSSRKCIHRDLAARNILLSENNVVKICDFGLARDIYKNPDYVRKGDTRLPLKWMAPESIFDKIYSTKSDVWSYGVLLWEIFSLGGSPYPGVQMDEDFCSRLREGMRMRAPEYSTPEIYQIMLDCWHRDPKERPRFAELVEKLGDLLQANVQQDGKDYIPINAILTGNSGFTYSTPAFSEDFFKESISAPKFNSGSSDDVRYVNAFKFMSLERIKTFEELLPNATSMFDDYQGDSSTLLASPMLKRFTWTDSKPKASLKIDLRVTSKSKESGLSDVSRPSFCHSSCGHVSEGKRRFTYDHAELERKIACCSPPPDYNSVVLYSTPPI
Source text: as §1, §2

[5] = target: c-RAF(h) (Homo sapiens, UniProt P04049); assay: in vitro kinase inhibition; type: biochemical
c-RAF(h), sequence (P04049 whole entry): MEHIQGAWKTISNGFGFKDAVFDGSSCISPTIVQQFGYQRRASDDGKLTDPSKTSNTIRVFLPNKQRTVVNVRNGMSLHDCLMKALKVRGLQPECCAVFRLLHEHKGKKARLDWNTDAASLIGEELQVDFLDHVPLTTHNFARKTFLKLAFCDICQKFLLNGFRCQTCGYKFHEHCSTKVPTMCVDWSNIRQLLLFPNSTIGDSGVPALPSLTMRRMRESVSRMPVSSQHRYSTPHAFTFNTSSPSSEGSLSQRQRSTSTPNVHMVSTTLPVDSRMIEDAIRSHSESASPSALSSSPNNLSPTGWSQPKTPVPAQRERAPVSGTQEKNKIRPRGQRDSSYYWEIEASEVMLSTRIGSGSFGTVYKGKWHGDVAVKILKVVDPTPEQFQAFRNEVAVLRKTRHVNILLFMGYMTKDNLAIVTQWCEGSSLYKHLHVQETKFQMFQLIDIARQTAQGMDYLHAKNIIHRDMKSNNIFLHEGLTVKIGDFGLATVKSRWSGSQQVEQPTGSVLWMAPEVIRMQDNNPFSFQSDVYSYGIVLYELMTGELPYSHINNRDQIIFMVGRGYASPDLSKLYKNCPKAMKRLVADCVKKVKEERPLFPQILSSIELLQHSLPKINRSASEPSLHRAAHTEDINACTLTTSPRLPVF
Source text: as §1, §2

[6] = target: KDR(h) (Homo sapiens, UniProt P35968); assay: in vitro tyrosine kinase inhibition; type: biochemical
[7] = test system: human liver cancer Bel-7402 xenograft; assay: animal antitumor activity, Bel-7402 xenograft; type: in vivo, mice; conditions: FIG. 2
[8] = test system: human colon cancer HT29 xenograft; assay: animal antitumor activity, HT29 xenograft; type: in vivo, mice; conditions: FIG. 1

pIC50 [1]: 6.63
pIC50 [2]: 8.70
pIC50 [3]: 6.66
pIC50 [4]: 8.40
pIC50 [5]: 6.53
pIC50 [6]: 7.82
Structure (SMILES): CNC(=O)c1cccc2cc(Oc3ccnc4cc(OCC5(N)CC5)c(OC)cc34)ccc12 [AL3810]
efficacy on animal model compared with Nexavar [7]: better efficacy
efficacy on animal model compared with SU11248 [8]: better efficacy than SU11248
